Experimental data as given in patent publication US20180289843A1, “COATING FOR METAL NANOPARTICLES” (AGENCY FOR SCIENCE, TECHNOLOGY AND RESEARCH, priority 2015, published 2018).
Where a SMILES comes first, the peptide text is derived from it. [ ]: non-standard residue; d: D form. The star is where a group is joined. pS = N[C@@H](COP(=O)(O)O)C(=O)O; Thr(ol) = C[C@@H](O)[C@H](N)CO; X1 = O=C(COP(=O)(O)O)*

Experiments:
[1] = Normalized aggregation parameter (NAP) by UV-visible absorbance; format: physicochemical; settings: single ligand shell
Method: UV-visible spectra were recorded at room temperature using a Molecular Probes (Oregon, USA) Spectramax 384-well spectrometer, using a 1 cm path length quartz cuvette, and a fixed slit width of 2 nrn. The spectrometer was calibrated daily using the machine's ‘Auto-Calibrate’ air calibration.
To allow the comparison of results from different ligand exchange experiments, the aggregation parameter (AP) was defined as follows: […]
A460 nm and A300 nm are absorbance values of solutions of nanoparticles at 460 nm and 300 nm, respectively. The empiric wavelength of 460 nm has been chosen to reflect the aggregated state of the nanoparticles. Aref460 nm and Aref300 nm are absorbance values of water at 460 nm and 300 nm. To allow comparison of results obtained with different ligand shells, this primary aggregation parameter was then normalized by dividing the aggregation parameter values of each experiment by the initial aggregation parameter value of the same experiment before the stability test. This provides a Normalized Aggregation Parameter (NAP). […] An increase of the NAP indicates the instability and eventually aggregation of the nanoparticles.

[2] = Electrolyte-induced aggregation stability test (NaCl, PBS) followed by UV-visible spectrometry; format: physicochemical; settings: prepared in PBS and Tween 20, two days
Method: The stability of the nanoparticles was followed by UV-visible spectrometry. A decrease of absorbance indicates the aggregation of the nanoparticles. […] The four single peptide ligand shells were evaluated for their potential to stabilize the iron oxide nanoparticles against electrolyte-induced aggregation. The nanoparticles were mixing with a range of concentration of NaCl (0.1 mM to 1 M) at room temperature. The stability of the nanoparticles was followed by UV-visible spectrophotometry and the normalized aggregation parameters were determined. […] The aggregation of all nanoparticles were observed also in PBS buffer (with 100 mM NaCl) after few hours. […] This represents a promising result since the utilization of the peptide coated iron nanoparticles in vitro and in vivo are performed at 37° C. All the mixed peptide ligand shells providing sufficient yield of nanoparticles were evaluated for electrolyte-induced aggregation stability by mixing the nanoparticles with a range of concentration of NaCl (0.1 mM to 1 M) at room temperature. […] This represents again a promising results since the utilisation of the peptide coated iron nanoparticles in vitro and in vivo are performed at 37° C.

[3] = prepared using PBS and Tween 20

NAP (normalized aggregation parameter) ([1]; prepared using water only) | Compound | also measured
(1.31 ± 0.04) | O=P(O)(O)SCCCCCCCCCCCOCCOCCOCCOCCOCCOCCO [Ligand L2, (HO)2-PO-S-C11-EG6-OH] | 
 | CC(C)[C@H](NC(=O)[C@H](COP(=O)(O)O)NC(=O)COP(=O)(O)O)C(=O)N[C@H](C(=O)N[C@H](C(=O)N[C@H](CO)[C@@H](C)O)C(C)C)C(C)C [Peptide S14, PO3H2-O-CH2-CO-Ser(PO3H2)-Val-Val-Val-Thr-ol] (X1-[pS]VVV[Thr(ol)]) | Stability in PBS buffer at 37° C. ([2]; 37° C.): same high stability; Stability in 1 M NaCl ([2]; room temperature): high stability; Stability in PBS buffer at room temperature ([2]; room temperature): high stability
(1.23 ± 0.13) | H-[pS]VVV[Thr(ol)] [Peptide S13] | NAP (normalized aggregation parameter) [1, 3]: 2.23 ± 0.34
(1.21 ± 0.21) | PO3H2-O-CH2-CO-Gly-NH-PEG4-OH [Peptide S5] | 
(1 ± 0.02) | PO3H2-O-CH2-CO-Ser(PO3H2)-NH-PEG4-OH [Peptide S7] | NAP (normalized aggregation parameter) [1, 3]: 1.33 ± 0.08
(1 ± 0.01) | PO3H2-O-CH2-CO-Ser(PO3H2)-NH-PEG4-ol [Peptide S8] | 

Compound | NAP (normalized aggregation parameter) ([1]; prepared using water only) | also measured
O=P(O)(O)SCCCCCCCCCCCOCCOCCOCCO [Ligand L1, (HO)2-PO-S-C11-EG3-OH] | (1.25 ± 0.08) | 
